{"source": "patent US20210361750A1", "about": "“Anti-Viral Lactoferrin Facemask” (priority 2020, published 2021)", "key": {"SARS-CoV-2": {"tested_on": "SARS-CoV-2", "experiment": "Cyclodextrin testing: antiviral activity against SARS-CoV-2 in Vero E6 cells (CPE)", "format": "cell-based", "settings": "pH 7; lactoferrin alone 10 mg/mL, cyclodextrin alone 10 mg/mL, or lactoferrin 5 mg/mL + cyclodextrin 10 mg/mL"}, "Vero E6 cells": {"tested_on": "Vero E6 cells", "settings": "control without virus, 10 mg/mL"}}, "data": [{"substance": "cyclodextrin [cyclodextrin alone, reference compound]", "values": [{"measurement": "antiviral activity (cytopathic effect)", "setting": "SARS-CoV-2", "value": "none of the experiments showed antiviral activity"}, {"measurement": "cytopathic effect on the cells", "setting": "Vero E6 cells", "value": "neither the lactoferrin alone (10 mg/mL) or the cyclodextrin alone (10 mg/mL) had a cytopathic effect"}]}]}
